Measurements published in patent publication US20260258036A1, “INHIBITORS OF HUMAN ALDOSTERONE SYNTHASE (CYP11B2)” («TARGET MEDICALS» LIMITED LIABILITY COMPANY, priority 2022, published 2026).

These compounds were tested against T1, recombinant CYP11B2 (Homo sapiens, UniProt P19099) (assay: Inhibition of CYP11B2 activity in a reconstructed enzyme system (HPLC with UV detector)). Settings: compounds 1_xx; test compound final concentration ≤2 μM; corticosterone substrate; 30 minutes at 37° C.; read-out: Level of CYP11B2 activity inhibition.
T1 sequence (P19099 25-503): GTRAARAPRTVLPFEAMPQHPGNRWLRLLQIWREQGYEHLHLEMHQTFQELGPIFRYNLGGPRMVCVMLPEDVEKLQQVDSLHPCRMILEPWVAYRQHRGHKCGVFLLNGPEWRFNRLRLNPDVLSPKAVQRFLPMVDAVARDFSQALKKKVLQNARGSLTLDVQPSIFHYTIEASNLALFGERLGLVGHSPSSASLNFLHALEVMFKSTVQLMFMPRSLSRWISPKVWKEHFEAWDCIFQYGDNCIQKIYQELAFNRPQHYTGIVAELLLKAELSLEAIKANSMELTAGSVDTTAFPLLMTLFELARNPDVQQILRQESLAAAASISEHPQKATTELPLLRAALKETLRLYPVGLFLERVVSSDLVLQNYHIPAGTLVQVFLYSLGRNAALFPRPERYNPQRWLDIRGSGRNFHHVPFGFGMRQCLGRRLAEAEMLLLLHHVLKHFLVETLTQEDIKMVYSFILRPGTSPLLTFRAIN
Type: biochemical
Description: The authors of the present invention investigated the activity of the compounds according to the invention as inhibitors of CYP11 B2 when analyzed in a reconstructed system containing 0.5 μm recombinant CYP1 1B2, 0.3 μm human adrenodoxin reductase, 2 μm human adrenodoxin, 100 μm corticosterone as a control reaction to detect the formation of a product with using an HPLC system with a UV detector. The test compound is added to the reaction mixture to a final concentration of ≤2 μM. The concentrated protein mixture was diluted with buffer to a final volume of 0.5 ml, pre-incubated for 10 min at 37° C., followed by the addition of the substrate. Reactions are initiated by adding NADPH (nicotinamide adenine dinucleotide phosphate) to a final concentration of 0.25 mM with a regenerating system (glucose-6-phosphate and glucose-6-phosphate dehydrogenase) in 25 mM potassium phosphate buffer, pH 7.4, containing 0.1 mM DTT (dithiothreitol), 0.1% Tween-20.4 mM MgCl2 and incubated at 37° C. After 30 minutes of incubation, the reaction is stopped by adding 5 ml of dichloromethane. The organic phase is isolated by centrifugation, evaporation, dissolution in ethanol and transferred to a vial for HPLC studies. A C18 Luna 100 Å 250×4, 6 mm column was used on an Agilent Technologies 1200 series instrument (USA) with ethanol as the mobile phase.
Activity (a) is calculated as the amount of product in nmol per minute per 1 nmol of CYP.
where k is the correction factor (k=1 is used as the molar extinction coefficients of steroid substrates and products similar at a detection wavelength of 254 nm), As is the peak area of the substrate, cs is the concentration of the substrate, Ap is the peak area of the product, ce is the concentration of CYP (cytochrome P450), t is the reaction time.
The level of inhibition of CYP11 B2 activity is expressed as a percentage, where 0% is defined as no inhibition in reactions without test compound and 100% is absolute inhibition by test compound.

Compound | inhibition at 2 µM
COc1c(C)cc(S(=O)(=O)n2ccc3c(-c4ccc(C)cn4)cncc32)cc1C [Compound 1_01, 1-(4-methoxy-3,5-dimethylphenyl)sulfonyl-4-(5-methyl-2-pyridyl)pyrrolo[2,3-c]pyridine] | 50 to 100%
CC(C)Oc1c(F)cc(S(=O)(=O)n2ccc3c(-c4ccccn4)cncc32)cc1F [Compound 1_06, 1-((3,5-difluoro-4-isopropoxyphenyl)sulfonyl)-4-(pyridin-2-yl)-1H-pyrrolo[2,3-c]pyridine] | 50 to 100%
O=S(=O)(c1cc(F)c(NC2CC2)c(F)c1)n1ccc2c(-c3ccccn3)cncc21 [Compound 1_13, N-cyclopropyl-2,6-difluoro-4-((4-(pyridin-2-yl)-1H-pyrrolo[2,3-c]pyridin-1-yl)sulfonyl)aniline] | 50 to 100%
O=S(=O)(c1cc(F)c(N2CCOCC2)c(F)c1)n1ccc2c(-c3ccccn3)cncc21 [Compound 1_10, 4-(2,6-difluoro-4-((4-(pyridin-2-yl)-1H-pyrrolo[2,3-c]pyridin-1-yl)sulfonyl)phenyl)morpholine] | 50 to 100%
CN1CCN(c2c(F)cc(S(=O)(=O)n3ccc4c(-c5ccccn5)cncc43)cc2F)CC1 [Compound 1_12, 1-((3,5-difluoro-4-(4-methylpiperazin-1-yl)phenyl)sulfonyl)-4-(pyridin-2-yl)-1H-pyrrolo[2,3-c]pyridine] | 50 to 100%
O=S(=O)(c1cc(F)c(OCC(F)F)c(F)c1)n1ccc2c(-c3ccccn3)cncc21 [Compound 1_08, 1-((4-(2,2-difluoroethoxy)-3,5-difluorophenyl)sulfonyl)-4-(pyridin-2-yl)-1H-pyrrolo[2,3-c]pyridine] | 50 to 100%
COc1c(C)cc(S(=O)(=O)n2ccc3c(-c4ncc(C)cn4)cncc32)cc1C [Compound 1_03, 1-((4-methoxy-3,5-dimethylphenyl)sulfonyl)-4-(5-methylpyrimidin-2-yl)-1H-pyrrolo[2,3-c]pyridine] | 50 to 100%
CN1CCN(c2c(F)cc(S(=O)(=O)N3CCc4c(-c5ccccn5)cncc43)cc2F)CC1 [Compound 1_17, 1-((3,5-difluoro-4-(4-methylpiperazin-1-yl)phenyl)sulfonyl)-4-(pyridin-2-yl)-2,3-dihydro-1H-pyrrolo[2,3-c]pyridine] | 50 to 100%

The next lines start with the values.

inhibition at 2 µM | Compound
50 to 100% | Cc1ccc(-c2cncc3c2ccn3S(=O)(=O)c2cc(F)c(N(C)C)c(F)c2)nc1 [Compound 1_33, 2,6-difluoro-N,N-dimethyl-4-((4-(5-methylpyridin-2-yl)-1H-pyrrolo[2,3-c]pyridin-1-yl)sulfonyl)aniline]
50 to 100% | CN1CCN(c2c(F)cc(S(=O)(=O)n3ccc4c(-c5nc(C#N)co5)cncc43)cc2F)CC1 [Compound 1_27, 2-(1-((3,5-difluoro-4-(4-methylpiperazin-1-yl)phenyl)sulfonyl)-1H-pyrrolo[2,3-c]pyridin-4-yl)oxazol-4-carbonitrile]
50 to 100% | CN1CCN(c2c(F)cc(S(=O)(=O)n3ccc4c(-c5ccc(C6CC6)cn5)cncc43)cc2F)CC1 [Compound 1_31, 4-(5-cyclopropylpyridin-2-yl)-1-((3,5-difluoro-4-(4-methylpiperazin-1-yl)phenyl)sulfonyl)-1H-pyrrolo[2,3-c]pyridine]
50 to 100% | CN(C)CCNc1c(F)cc(S(=O)(=O)n2ccc3c(-c4ccccn4)cncc32)cc1F [Compound 1_22, N1-(2,6-difluoro-4-((4-(pyridin-2-yl)-1H-pyrrolo[2,3-c]pyridin-1-yl)sulfonyl)phenyl)-N2,N2-dimethylethane-1,2-diamine]
50 to 100% | O=S(=O)(c1cc(F)c(N2CCC3(CCNC3)C2)c(F)c1)n1ccc2c(-c3ccccn3)cncc21 (stereo not shown) [Compound 1_26, 2-(2,6-difluoro-4-((4-(pyridin-2-yl)-1H-pyrrolo[2,3-c]pyridin-1-yl)sulfonyl)phenyl)-2,7-diazaspiro[4.4]nonane]
50 to 100% | CN1CCN(c2c(F)cc(S(=O)(=O)n3ccc4c(-c5ccc(C#N)nc5)cncc43)cc2F)CC1 [Compound 1_28, 5-(1-((3,5-difluoro-4-(4-methylpiperazin-1-yl)phenyl)sulfonyl)-1H-pyrrolo[2,3-c]pyridin-4-yl)picolinonitrile]
50 to 100% | O=S(=O)(c1cc(F)c(N2CCSCC2)c(F)c1)n1ccc2c(-c3ccccn3)cncc21 [Compound 1_23, 4-(2,6-difluoro-4-((4-(pyridin-2-yl)-1H-pyrrolo[2,3-c]pyridin-1-yl)sulfonyl)phenyl)thiomorpholine]

Same assay, conditions: compounds 2_xx, 3_xx, 4_01; test compound final concentration ≤2 μM; corticosterone substrate; 30 minutes at 37° C.

Compound | Level of CYP11B2 activity inhibition
Cl.O=S(=O)(c1cc(F)c(N2CCNCC2)c(F)c1)n1ccc2c(-c3ccccn3)cncc21 [Compound 3_27, 1-((3,5-difluoro-4-(piperazin-1-yl)phenyl)sulfonyl)-4-(pyridin-2-yl)-1H-pyrrolo[2,3-c]pyridine] | ++ (inhibition of CYP11B2 activity in the range of 20-100% (++))

Same assay, conditions: compounds 2_xx, 3_xx, 4_01; test compound final concentration ≤2 μM; corticosterone substrate; 30 minutes at 37° C.; read-out: Level of CYP11B2 activity inhibition

inhibition at 2 µM | Compound
35 to 100% | O=S(=O)(c1cc(F)c(N2CCN(CC3CC3)CC2)c(F)c1)n1ccc2c(-c3ccccn3)cncc21 [Compound 2_02, 1-((4-(4-(cyclopropylmethyl)piperazin-1-yl)-3,5-difluorophenyl)sulfonyl)-4-(pyridin-2-yl)-1H-pyrrolo[2,3-c]pyridine]
35 to 100% | N#Cc1ccc(-c2cncc3c2ccn3S(=O)(=O)c2cc(F)c(N3CC4CNCC4C3)c(F)c2)cn1 (stereo not shown) [Compound 3_28, 5-(1-((3,5-difluoro-4-(hexahydropyrrolo[3,4-c]pyrrol-2(1H)-yl)phenyl)sulfonyl)-1H-pyrrolo[2,3-c]pyridin-4-yl)picolinonitrile]
20 to 100% | O=S(=O)(c1cc(F)c(N2CC3(CNC3)C2)c(F)c1)n1ccc2c(-c3ccccn3)cncc21 [Compound 3_21, 1-((3,5-difluoro-4-(2,6-diazaspiro[3.3]heptan-2-yl)phenyl)sulfonyl)-4-(pyridin-2-yl)-1H-pyrrolo[2,3-c]pyridine]
35 to 100% | CN1CCN(c2c(F)cc(S(=O)(=O)n3ccc4c(-c5cnc(C#N)nc5)cncc43)cc2F)CC1 [Compound 3_09, 5-(1-((3,5-difluoro-4-(4-methylpiperazin-1-yl)phenyl)sulfonyl)-1H-pyrrolo[2,3-c]pyridin-4-yl)pyrimidine-2-carbonitrile]
35 to 100% | CN1CCN(c2c(F)cc(S(=O)(=O)n3ccc4c(-c5ccccn5)cncc43)cc2F)CC1 [Compound 4_01, 1-((3,5-difluoro-4-(4-methylpiperazin-1-yl)phenyl)sulfonyl)-4-(pyridin-2-yl)-1H-pyrrolo[2,3-c]pyridine]
35 to 100% | O=S(=O)(c1cc(F)c(N2CCN3CCC2C3)c(F)c1)n1ccc2c(-c3ccccn3)cncc21 (stereo not shown) [Compound 3_20, 1-((4-(1,4-diazabicyclo[3.2.1]octan-4-yl)-3,5-difluorophenyl)sulfonyl)-4-(pyridin-2-yl)-1H-pyrrolo[2,3-c]pyridine]
35 to 100% | CN1CC2CC1CN2c1c(F)cc(S(=O)(=O)n2ccc3c(-c4ccccn4)cncc32)cc1F (stereo not shown) [Compound 3_17, 1-((3,5-difluoro-4-(5-methyl-2,5-diazabicyclo[2.2.1]heptan-2-yl)phenyl)sulfonyl)-4-(pyridin-2-yl)-1H-pyrrolo[2,3-c]pyridine]
35 to 100% | CNc1ccc(-c2cncc3c2ccn3S(=O)(=O)c2cc(F)c(N3CCN(C)CC3)c(F)c2)nn1 [Compound 3_07, 6-(1-((3,5-difluoro-4-(4-methylpiperazin-1-yl)phenyl)sulfonyl)-1H-pyrrolo[2,3-c]pyridin-4-yl)-N-methylpyridazin-3-amine]

Compound | inhibition at 2 µM
O=S(=O)(c1cc(F)c(N2C3CCC2CNC3)c(F)c1)n1ccc2c(-c3ccccn3)cncc21 [Compound 3_26, 1-((4-(3,8-diazabicyclo[3.2.1]octan-8-yl)-3,5-difluorophenyl)sulfonyl)-4-(pyridin-2-yl)-1H-pyrrolo[2,3-c]pyridine] | 35 to 100%
